The values that follow come from ChEMBL document CHEMBL6153078, “Design, synthesis, and biological evaluation of imidazolidinone derivatives as potent PPARα/δ agonists for the treatment of cholestatic liver diseases” (Eur J Med Chem, 2025).

A value given as a limit tells only on which side of the number the result lay.

What all share (type): cell-based
Test [1] concerns the target T1, Peroxisome proliferator-activated receptor alpha (Homo sapiens, UniProt Q07869).
T1 sequence (Q07869 whole entry): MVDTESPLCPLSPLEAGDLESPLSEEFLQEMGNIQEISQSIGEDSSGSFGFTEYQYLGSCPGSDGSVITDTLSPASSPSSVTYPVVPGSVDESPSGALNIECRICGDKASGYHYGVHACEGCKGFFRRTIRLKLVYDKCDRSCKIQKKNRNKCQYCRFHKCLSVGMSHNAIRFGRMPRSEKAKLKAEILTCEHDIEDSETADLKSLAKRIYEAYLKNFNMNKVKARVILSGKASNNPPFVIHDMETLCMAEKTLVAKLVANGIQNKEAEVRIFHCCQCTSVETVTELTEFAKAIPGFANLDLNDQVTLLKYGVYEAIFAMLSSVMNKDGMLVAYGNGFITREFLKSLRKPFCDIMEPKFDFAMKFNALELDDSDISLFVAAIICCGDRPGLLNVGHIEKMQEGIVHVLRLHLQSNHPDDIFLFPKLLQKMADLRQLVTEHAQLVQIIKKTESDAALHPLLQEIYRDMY
The experiment in a line: Agonist activity at GAL4-fused human PPAR-alpha transfected in African green monkey COS7 cells assessed transcriptional activation incubated for 16 hrs by Luciferase assay.

Test [2] deals with T2, Peroxisome proliferator-activated receptor delta (Homo sapiens, UniProt Q03181).
T2 sequence (Q03181 whole entry): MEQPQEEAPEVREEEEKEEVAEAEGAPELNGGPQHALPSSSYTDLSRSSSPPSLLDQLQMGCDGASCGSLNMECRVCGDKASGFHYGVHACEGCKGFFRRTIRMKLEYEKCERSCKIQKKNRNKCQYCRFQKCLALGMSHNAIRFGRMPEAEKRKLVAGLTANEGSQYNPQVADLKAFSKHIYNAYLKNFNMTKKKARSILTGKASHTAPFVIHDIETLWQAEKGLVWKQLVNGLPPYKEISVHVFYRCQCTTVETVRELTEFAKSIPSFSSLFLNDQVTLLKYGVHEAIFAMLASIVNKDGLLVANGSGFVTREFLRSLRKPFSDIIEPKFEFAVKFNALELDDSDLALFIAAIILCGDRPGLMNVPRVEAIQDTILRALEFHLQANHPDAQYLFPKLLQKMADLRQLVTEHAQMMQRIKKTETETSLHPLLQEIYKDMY
The experiment in a line: Agonist activity at GAL4-fused human PPAR-delta transfected in African green monkey COS7 cells assessed transcriptional activation incubated for 16 hrs by Luciferase assay.

Test [3] deals with T3, Peroxisome proliferator-activated receptor gamma (Homo sapiens, UniProt P37231).
T3 sequence (P37231 whole entry): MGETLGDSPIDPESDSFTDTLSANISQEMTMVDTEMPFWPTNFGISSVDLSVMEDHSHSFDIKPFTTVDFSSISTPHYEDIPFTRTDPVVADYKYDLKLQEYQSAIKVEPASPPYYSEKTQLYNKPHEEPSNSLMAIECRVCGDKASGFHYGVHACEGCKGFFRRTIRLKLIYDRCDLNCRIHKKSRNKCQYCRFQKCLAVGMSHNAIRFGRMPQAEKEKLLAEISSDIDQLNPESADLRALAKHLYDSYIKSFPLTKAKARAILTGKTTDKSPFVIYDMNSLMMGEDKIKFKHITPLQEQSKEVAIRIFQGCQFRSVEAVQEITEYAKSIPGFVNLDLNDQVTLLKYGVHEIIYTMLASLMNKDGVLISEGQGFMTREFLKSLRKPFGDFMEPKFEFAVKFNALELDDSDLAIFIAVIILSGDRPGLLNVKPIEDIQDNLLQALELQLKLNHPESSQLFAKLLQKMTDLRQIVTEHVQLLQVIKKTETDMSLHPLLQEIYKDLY
Put plainly: Agonist activity at GAL4-fused human PPAR-gamma transfected in African green monkey COS7 cells assessed transcriptional activation incubated for 16 hrs by Luciferase assay.

As a reminder, the EC50 is the midpoint of the concentration-response curve. Regarding `Cc1cc(CN2CCN(c3ccccc3C(F)(F)F)C2=O)cc(C)c1OC(C)(C)C(=O)O`, the EC50 in test [1] and in test [2] was greater than 5000 nM in each case.

In the case of `CSc1ccc(C(=O)/C=C/c2cc(C)c(OC(C)(C)C(=O)O)c(C)c2)cc1` [ELAFIBRANOR], the results for the EC50 in test [1] and in test [3] were 888 nM and 1570 nM, respectively.

For `Cc1cc(CN2CCN(c3ccc(C(F)(F)F)cc3)C2=O)ccc1OC(C)(C)C(=O)O`, the EC50 in test [1] was 175 nM; in test [3], greater than 5000 nM.

For `CCc1ccc(N2CCN(Cc3cc(C)c(OC(C)(C)C(=O)O)c(C)c3)C2=O)cc1`, the EC50 in test [1] came out at 7.3 nM; in test [3], 1290 nM.

With `Cc1cc(CN2CCN(c3ccc(Cl)cc3)C2=O)cc(C)c1OC(C)(C)C(=O)O`, a half-maximal effect in test [1] (EC50) was put at 1020 nM.

Take `Cc1cc(CN2CCN(c3ccc(OC(F)(F)F)cc3)C2=O)cc(C)c1OC(C)(C)C(=O)O`: the EC50 in test [1] came to 4.7 nM; in test [2], 36.9 nM; in test [3], 416 nM.

Consider `Cc1cc(CN2CCN(c3ccccc3)C2=O)cc(C)c1OC(C)(C)C(=O)O`, for which the concentration giving a half-maximal response (EC50) in test [1] worked out at 436 nM; in test [2], 260 nM.

Compound `Cc1cc(Cn2ncn(-c3ccc(OC(F)(F)F)cc3)c2=O)cc(C)c1OC(C)(C)C(=O)O` showed an EC50 in test [1] of 8.5 nM.

For the compound `Cc1cc(CN2CCN(c3cccc(C(F)(F)F)c3)C2=O)cc(C)c1OC(C)(C)C(=O)O`, the EC50 in test [1] was 14.2 nM; in test [2] it was 40.9 nM; in test [3], 884 nM.

Consider `Cc1cc(CN2CCN(c3ccc(C(C)C)cc3)C2=O)cc(C)c1OC(C)(C)C(=O)O`, for which the concentration giving a half-maximal response (EC50) in test [2] came out at 69.6 nM.

The compound `CC(C)(Oc1ccc(CN2CCN(c3ccc(C(F)(F)F)cc3)C2=O)cc1)C(=O)O` gave an EC50 in test [3] greater than 5000 nM.

Turning to `COc1ccc(N2CCN(Cc3cc(C)c(OC(C)(C)C(=O)O)c(C)c3)C2=O)cc1`, the EC50 in test [1] worked out at 121 nM; in test [2], 263 nM; in test [3], 2580 nM.

Turning to `Cc1cc(CN2CCN(c3ccc(F)cc3)C2=O)cc(C)c1OC(C)(C)C(=O)O`, the figures for the EC50 in test [1], in test [2] and in test [3] were 89.5 nM, 39 nM and 2130 nM, respectively.

`Cc1cc(CN2CCN(c3ccc(C(C)(C)C)cc3)C2=O)cc(C)c1OC(C)(C)C(=O)O` yielded an EC50 in test [2] greater than 5000 nM.

In the case of `Cc1ccc(N2CCN(Cc3cc(C)c(OC(C)(C)C(=O)O)c(C)c3)C2=O)cc1`, the EC50 in test [1] came out at 40.4 nM; in test [3], 1200 nM.
